In US5665386A, “Use of essential oils to increase bioavailability of oral pharmaceutical compounds” (priority 1995, dated 1997):
“And” between values parts separate entries of the source, which are not always exact repeats. Equal values may be shown once. Read-outs that look alike come from different tables or passages of the source.

Test system: rat cytochrome P450 3A
[1] = Table 2, 0.0001 wt. % component
[2] = Table 2, repeat 0.0001 wt. % (SD in parentheses)

| SMILES | % inhibition of cyclosporine metabolism [1] | % inhibition of cyclosporine metabolism (Table 2, 0.001 wt. % component) | % inhibition of cyclosporine metabolism (Table 2, 0.01 wt. % component) | further results |
| --- | --- | --- | --- | --- |
| CC12CCC(CC1=O)C2(C)C (racemic) [Camphor-(±), 1,7,7-Trimethylbicyclo [2.2.1] heptan-2-one] | – | – | – | % inhibition of cyclosporine metabolism, repeat (microsomes, pH 7.4): 53 (3) % |
| C=CC(C)(O)CCC=C(C)C (racemic) [Linalool-(±), 3,7-Dimethyl-1,6-octadien-3-ol] | 41% | 72.0% | 85% | % inhibition of cyclosporine metabolism, repeat [2]: -7 (9) % and -5 (2) % |
| CCC=CCC1C(=O)CCC1CC(=O)OC (racemic) [Methyl Jasmonate-(±), Methyl-3-oxo-2-(2-pentenyl)-cyclopentane acetate] | -27% | 65% | – | – |
| C=C1C2CCC(C2)C1(C)C (single isomer, unassigned) [Camphene-(+), 2,2-Dimethyl-3-methylenebicyclo[2.2.1]heptane] | -49% | 12.4% | – | – |
| C=C(C)C1CC=C(C)C(O)C1 (single isomer, unassigned) [Carveol-(-), p-Mentha-6,8-dien-2-ol] | 2% | 60% | – | – |
| CC=C(C)C=CC=C(C)C [Allo Ocimene, 2,6-Dimethyl-2,4,6-octatriene] | 6% | 22% | – | – |
| C/C=C/c1ccc(OC)cc1 [Anethole, trans-, 4-Propenylanisole] | – | 53% | 100% | – |
| O=C(/C=C/c1ccccc1)OCc1ccccc1 [Benzyl Cinnamate, Benzyl 3-phenylpropenoic acid] | 7% | -45% | – | – |
| COc1cc(CNC(=O)CCCC/C=C/C(C)C)ccc1O [Capsaicin, trans-8-Methyl-N-vanillyl-6 nonenamide] | 27% | 68% | – | – |
| CC1=CCC2C(C1)C2(C)C (centres unmarked) [Carene-3-(Δ)] | -26% | 34% | – | – |
| Cc1ccc(C(C)C)cc1O [Carvacrol, 5-isoProply-2-methylphenol] | 11% | 93% | 97% | – |
| C=C(C)[C@@H]1CC=C(C)C(=O)C1 [Carvone-(R)-(-), p-Mentha-6,8-dien-2-one] | 27% | 69% | 100% | – |
| C=C(C)[C@H]1CC=C(C)C(=O)C1 [Carvone-(S)-(+), p-Mentha-6,8-dien-2-one] | 30% | 70.5% | – | – |
| C=C1CC/C=C(\C)CC[C@@H]2[C@@H]1CC2(C)C [Caryophyllene, trans-(-), β Caryophyllene] | 26% | 85% | – | – |
| O=C/C=C/c1ccccc1 [Cinnamic Aldehyde, trans-, 3-Phenylpropenaldehyde] | – | 29.0% | 78% | – |
| CC(C)=CCC/C(C)=C/C=O [Citral] | 44% | 54% | 99% | – |
| CC(C)=CCCC(C)CCO (stereo not drawn) [Citronellol-(DL)-(β), 3,7-Dimethyl-6-octen-1-ol] | 41% | 86% | 95% | % inhibition of cyclosporine metabolism, repeat [2]: 35 (4) % |
| C=CCc1ccc(OC)cc1 [Estragole, 4-Allylanisole] | 7% | 69.2% | 100% | – |
| CCOC(=O)/C=C/c1ccccc1 [Ethyl Cinnamate, trans-, Ethyl 3-phenylpropenoic acid] | -13% | -16% | – | – |

| SMILES | % inhibition of cyclosporine metabolism [1] | % inhibition of cyclosporine metabolism (Table 2, 0.001 wt. % component) | % inhibition of cyclosporine metabolism (Table 2, 0.01 wt. % component) | further results |
| --- | --- | --- | --- | --- |
| CCOc1cc(C=O)ccc1O [Ethyl Vanillin, 3-Ethoxy-4-hydroxybenzalehyde] | – | – | 58% | – |
| C=CCc1ccc(O)c(OC)c1 [Eugenol, 4-Allyl-2-methoxyphenol] | 9.8% | 66% | 100% | – |
| CC(C)=CCC/C(C)=C/CC/C(C)=C/CO [Farnesol, trans-, trans-, 3,7,11-Trimethyl-2,6,10-dodecatrien-1-ol] | 49% | 82% | – | – |
| CC1(C)[C@H]2CC[C@](C)(C2)[C@H]1O [Fenchol-(1R)-endo-(+), 1,3,3-Trimethylbicyclo [2.2.1] heptan-2-ol] | 18% | 74% | 100% | – |
| CC1(C)C(=O)[C@]2(C)CC[C@H]1C2 [Fenchone-(1R)-(-), 1,3,3-Trimethylbicyclo [2.2.1] heptan-2-one] | 14% | 38% | – | – |
| CC(=O)OC/C=C(\C)CCC=C(C)C [Geranyl Acetate, trans-3,7-Dimethyl-2,6-octadien-1-yl acetate] | – | 51.5% | 73% | – |
| CC/C=C\CC1=C(C)CCC1=O [Jasmone, cis-, 3-Methyl-2-(2-pentenyl)-2-cyclopenten-1-one] | 16.0% | 68% | – | – |
| CC(=O)N1CCN(c2ccc(OCC3COC(Cn4ccnc4)(c4ccc(Cl)cc4Cl)O3)cc2)CC1 (centres unmarked) [Ketoconazole, reference compound] | – | – | – | % inhibition of cyclosporine metabolism (Table 3, 0.000001%): 8%; % inhibition of cyclosporine metabolism (Table 3, 0.000005%): 20%; % inhibition of cyclosporine metabolism (Table 3, 0.00001%): 42%; % inhibition of cyclosporine metabolism (Table 3, 0.00005%): 100% |
| C=C(C)[C@H]1CC=C(C)CC1 [Limonene-(R)-(+), p-Mentha-1,8-diene] | – | 20% | 84% | – |
| C=C(C)[C@@H]1CC=C(C)CC1 [Limonene-(S)-(-), p-Mentha-1,8-diene] | – | 30% | 82.3% | – |
| C=CC(C)(CCC=C(C)C)OC(C)=O (centres unmarked) [Linalyl Acetate, 3,7-Dimethyl-1,6-octadien-3-yl acetate] | – | 55.8% | 100% | – |
| CC(C)[C@@H]1CC[C@@H](C)CC1=O [Menthone-(-), p-Menthan-3-one] | 14% | 52% | – | – |
| COC(=O)c1ccccc1N [Methyl Anthranilate, Methyl 2-aminobenzoate] | -7% | 23% | – | – |
| C=CC(=C)CCC=C(C)C [Myrcene-β, 7-Methyl-3-methylene-1,6-octadiene] | 0% | 13% | – | – |
| C=C1CC[C@H]2C[C@@H]1C2(C)C [Pinene-(1S)-(-)-β, 6,6-Dimethyl-2-methylenebicyclo[3.1.1]heptane] | -10% | 60% | 88% | – |
| CC(C)=C1CC[C@@H](C)CC1=O [Pulegone-(R)-(+), p-Menth-4(8)-en-3-one] | -17% | 31% | – | – |
| CC1=CCC(O)(C(C)C)CC1 (centres unmarked) [Terpinen-4-ol, p-Menth-1-en-4-ol] | 3.81% | 80% | 100% | – |
| CC1=CC=C(C(C)C)CC1 [Terpinene-α, p-Mentha-1,3-diene] | -6% | 28% | – | – |
| CC1=CCC(C(C)(C)O)CC1 (stereo not drawn) [Terpineol-α, p-Menth-1-en-8-ol] | 13.4% | 86% | 100% | – |
